Measurements reported in ChEMBL document CHEMBL1201862, “PubChem BioAssay data set” (2004).
Active and inactive are the calls of the source.

What was measured:
Exodeoxyribonuclease V = target: T1, Exodeoxyribonuclease V (Escherichia coli (strain K12), UniProt P04993+P07648+P08394); assay: RecBCD inhibition via phage-restricted bacterial growth – absorbance, V66 E. coli, mutant T4 phage, counter-screen for AddAB inhibitor project, dose response (AID 492957); format: functional, cell-based, Escherichia coli str. K-12 substr. MG1655
T1 sequence (P04993 whole entry): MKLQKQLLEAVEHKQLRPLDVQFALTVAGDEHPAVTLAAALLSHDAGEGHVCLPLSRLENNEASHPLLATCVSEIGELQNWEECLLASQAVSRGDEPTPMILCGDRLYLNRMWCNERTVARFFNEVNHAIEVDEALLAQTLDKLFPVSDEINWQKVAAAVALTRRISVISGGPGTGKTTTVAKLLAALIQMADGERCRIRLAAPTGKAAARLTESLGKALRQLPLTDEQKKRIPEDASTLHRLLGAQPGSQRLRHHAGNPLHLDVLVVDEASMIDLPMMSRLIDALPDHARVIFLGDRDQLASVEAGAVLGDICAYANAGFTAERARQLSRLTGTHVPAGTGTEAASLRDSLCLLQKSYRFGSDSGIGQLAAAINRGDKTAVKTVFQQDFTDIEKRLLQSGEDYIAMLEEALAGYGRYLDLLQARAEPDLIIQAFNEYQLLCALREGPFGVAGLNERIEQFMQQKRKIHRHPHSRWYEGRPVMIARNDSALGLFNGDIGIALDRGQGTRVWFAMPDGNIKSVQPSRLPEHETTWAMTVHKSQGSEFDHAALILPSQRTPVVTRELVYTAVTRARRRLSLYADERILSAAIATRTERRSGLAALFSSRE
T1 sequence (P07648 whole entry): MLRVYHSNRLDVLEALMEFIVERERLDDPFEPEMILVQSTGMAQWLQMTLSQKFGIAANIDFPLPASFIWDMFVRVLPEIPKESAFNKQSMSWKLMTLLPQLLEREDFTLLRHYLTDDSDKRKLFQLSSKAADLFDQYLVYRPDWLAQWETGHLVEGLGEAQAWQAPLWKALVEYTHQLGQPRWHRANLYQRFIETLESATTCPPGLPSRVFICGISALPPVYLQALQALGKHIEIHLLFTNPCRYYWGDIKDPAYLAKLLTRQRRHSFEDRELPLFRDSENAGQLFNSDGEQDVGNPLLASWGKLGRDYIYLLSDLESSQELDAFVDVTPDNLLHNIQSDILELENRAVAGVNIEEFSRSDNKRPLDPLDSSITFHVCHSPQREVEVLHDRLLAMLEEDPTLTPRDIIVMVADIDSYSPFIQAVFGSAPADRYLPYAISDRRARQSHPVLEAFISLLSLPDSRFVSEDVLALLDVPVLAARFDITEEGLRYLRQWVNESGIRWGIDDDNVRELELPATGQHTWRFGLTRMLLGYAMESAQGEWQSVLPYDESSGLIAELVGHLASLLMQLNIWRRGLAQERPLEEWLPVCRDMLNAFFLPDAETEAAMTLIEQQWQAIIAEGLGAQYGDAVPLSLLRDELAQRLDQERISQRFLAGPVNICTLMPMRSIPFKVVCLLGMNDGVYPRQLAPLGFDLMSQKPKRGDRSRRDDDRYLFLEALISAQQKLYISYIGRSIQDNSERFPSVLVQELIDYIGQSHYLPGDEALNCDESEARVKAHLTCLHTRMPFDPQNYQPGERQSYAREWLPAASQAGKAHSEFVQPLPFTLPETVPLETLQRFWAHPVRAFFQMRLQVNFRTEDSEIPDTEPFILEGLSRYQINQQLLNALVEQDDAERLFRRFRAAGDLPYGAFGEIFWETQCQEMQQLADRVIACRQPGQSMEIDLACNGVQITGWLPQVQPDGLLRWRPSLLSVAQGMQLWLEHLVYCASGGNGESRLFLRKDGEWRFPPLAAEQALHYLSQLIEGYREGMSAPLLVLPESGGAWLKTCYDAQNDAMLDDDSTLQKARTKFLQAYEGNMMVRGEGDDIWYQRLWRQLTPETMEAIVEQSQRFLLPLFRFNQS
T1 sequence (P08394 whole entry): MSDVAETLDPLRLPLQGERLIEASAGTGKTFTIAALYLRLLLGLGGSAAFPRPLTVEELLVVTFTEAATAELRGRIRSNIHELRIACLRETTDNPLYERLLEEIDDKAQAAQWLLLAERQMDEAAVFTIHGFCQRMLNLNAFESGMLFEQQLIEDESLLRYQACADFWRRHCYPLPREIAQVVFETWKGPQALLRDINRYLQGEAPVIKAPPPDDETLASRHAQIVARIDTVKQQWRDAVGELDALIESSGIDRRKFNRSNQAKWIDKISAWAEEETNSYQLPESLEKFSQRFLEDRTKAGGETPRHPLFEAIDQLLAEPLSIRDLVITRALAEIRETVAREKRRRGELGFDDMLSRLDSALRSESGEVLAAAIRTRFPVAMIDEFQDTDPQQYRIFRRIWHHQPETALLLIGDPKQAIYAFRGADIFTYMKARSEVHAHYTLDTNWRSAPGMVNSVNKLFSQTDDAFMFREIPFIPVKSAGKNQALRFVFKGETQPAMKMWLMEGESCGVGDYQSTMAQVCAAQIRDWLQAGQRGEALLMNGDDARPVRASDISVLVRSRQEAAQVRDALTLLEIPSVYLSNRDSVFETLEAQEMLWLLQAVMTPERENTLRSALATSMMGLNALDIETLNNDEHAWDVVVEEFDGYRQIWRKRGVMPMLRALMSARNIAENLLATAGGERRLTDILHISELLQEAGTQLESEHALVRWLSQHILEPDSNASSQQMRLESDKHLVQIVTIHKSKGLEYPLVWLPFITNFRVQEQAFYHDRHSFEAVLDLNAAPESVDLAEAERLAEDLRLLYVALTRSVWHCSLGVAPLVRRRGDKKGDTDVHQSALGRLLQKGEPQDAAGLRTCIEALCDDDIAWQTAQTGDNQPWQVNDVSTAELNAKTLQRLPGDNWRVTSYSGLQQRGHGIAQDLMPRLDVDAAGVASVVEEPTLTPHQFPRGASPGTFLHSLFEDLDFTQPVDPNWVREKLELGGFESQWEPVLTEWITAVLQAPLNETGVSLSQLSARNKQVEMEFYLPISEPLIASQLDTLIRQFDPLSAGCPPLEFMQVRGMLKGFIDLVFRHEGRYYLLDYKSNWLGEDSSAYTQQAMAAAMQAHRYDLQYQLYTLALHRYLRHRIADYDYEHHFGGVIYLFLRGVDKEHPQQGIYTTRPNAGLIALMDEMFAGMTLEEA

[1] = target: Hepatocyte growth factor receptor (Homo sapiens, UniProt P08581); format: functional;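 also: kinase panel profiling across the kinome, with MET as the panel member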
[2] = target: Phosphorylase b kinase gamma catalytic chain, liver/testis isoform (Homo sapiens, UniProt P15735); format: functional;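 also: PHKG2 measured as one member of a kinome-wide kinase panel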
[3] = target: Lymphokine-activated killer T-cell-originated protein kinase (Homo sapiens, UniProt Q96KB5); format: functional;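 also: value comes from a kinase panel screen in which TOPK was one of the panel members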
[4] = target: Proto-oncogene tyrosine-protein kinase receptor Ret (Homo sapiens, UniProt P07949); format: functional;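 also: measured within a kinome-wide profiling panel, RET as the panel member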
Sequence of Proto-oncogene tyrosine-protein kinase receptor Ret (P07949 whole entry): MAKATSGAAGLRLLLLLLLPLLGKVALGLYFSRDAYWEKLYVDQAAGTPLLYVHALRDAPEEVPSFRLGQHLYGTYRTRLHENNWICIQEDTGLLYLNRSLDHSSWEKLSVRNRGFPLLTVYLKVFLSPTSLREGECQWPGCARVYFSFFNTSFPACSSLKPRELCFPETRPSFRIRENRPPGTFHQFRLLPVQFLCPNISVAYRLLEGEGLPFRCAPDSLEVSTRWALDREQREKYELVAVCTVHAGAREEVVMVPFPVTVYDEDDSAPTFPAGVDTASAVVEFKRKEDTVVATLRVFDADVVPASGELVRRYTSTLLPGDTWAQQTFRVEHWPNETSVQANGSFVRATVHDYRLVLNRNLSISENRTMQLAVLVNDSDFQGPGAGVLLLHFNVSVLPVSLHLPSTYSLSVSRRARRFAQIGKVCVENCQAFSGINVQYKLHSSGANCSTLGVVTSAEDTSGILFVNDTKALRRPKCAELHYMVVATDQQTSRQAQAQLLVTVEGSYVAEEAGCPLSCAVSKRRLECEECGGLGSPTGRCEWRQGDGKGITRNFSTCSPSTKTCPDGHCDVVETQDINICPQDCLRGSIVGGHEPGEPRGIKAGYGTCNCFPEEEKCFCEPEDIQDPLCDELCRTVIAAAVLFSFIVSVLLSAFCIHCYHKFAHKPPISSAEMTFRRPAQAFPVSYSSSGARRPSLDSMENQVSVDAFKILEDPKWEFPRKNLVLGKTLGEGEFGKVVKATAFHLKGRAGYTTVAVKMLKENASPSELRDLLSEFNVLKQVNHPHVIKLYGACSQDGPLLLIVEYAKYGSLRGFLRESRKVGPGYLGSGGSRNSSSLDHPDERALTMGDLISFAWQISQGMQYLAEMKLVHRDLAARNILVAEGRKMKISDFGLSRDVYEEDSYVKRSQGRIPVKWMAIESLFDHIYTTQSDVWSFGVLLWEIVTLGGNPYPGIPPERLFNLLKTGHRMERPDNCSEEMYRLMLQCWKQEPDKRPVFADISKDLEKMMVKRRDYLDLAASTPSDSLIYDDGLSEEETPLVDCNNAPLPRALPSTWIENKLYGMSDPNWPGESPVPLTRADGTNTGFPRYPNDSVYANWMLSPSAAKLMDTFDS

Sequence of Phosphorylase b kinase gamma catalytic chain, liver/testis isoform (P15735 whole entry, canonical isoform): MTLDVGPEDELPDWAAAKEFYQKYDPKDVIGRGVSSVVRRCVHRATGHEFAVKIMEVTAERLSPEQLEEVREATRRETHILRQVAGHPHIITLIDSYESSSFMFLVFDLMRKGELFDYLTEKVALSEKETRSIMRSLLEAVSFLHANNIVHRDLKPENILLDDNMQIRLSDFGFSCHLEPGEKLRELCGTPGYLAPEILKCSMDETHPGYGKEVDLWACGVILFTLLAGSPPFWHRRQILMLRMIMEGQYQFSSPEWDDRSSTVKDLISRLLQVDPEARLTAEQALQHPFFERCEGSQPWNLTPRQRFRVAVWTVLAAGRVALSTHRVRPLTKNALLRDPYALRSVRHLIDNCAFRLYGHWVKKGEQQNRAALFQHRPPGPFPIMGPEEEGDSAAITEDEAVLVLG
Sequence of Lymphokine-activated killer T-cell-originated protein kinase (Q96KB5 whole entry): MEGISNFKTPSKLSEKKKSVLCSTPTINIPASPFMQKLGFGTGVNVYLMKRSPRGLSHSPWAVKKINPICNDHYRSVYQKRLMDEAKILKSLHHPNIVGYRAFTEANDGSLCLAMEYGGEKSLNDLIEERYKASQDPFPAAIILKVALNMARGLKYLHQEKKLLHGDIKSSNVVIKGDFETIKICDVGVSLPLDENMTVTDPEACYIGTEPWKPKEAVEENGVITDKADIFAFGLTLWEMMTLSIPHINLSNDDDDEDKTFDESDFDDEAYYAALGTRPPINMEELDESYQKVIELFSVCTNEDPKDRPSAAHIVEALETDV
Sequence of Hepatocyte growth factor receptor (P08581 whole entry, canonical isoform): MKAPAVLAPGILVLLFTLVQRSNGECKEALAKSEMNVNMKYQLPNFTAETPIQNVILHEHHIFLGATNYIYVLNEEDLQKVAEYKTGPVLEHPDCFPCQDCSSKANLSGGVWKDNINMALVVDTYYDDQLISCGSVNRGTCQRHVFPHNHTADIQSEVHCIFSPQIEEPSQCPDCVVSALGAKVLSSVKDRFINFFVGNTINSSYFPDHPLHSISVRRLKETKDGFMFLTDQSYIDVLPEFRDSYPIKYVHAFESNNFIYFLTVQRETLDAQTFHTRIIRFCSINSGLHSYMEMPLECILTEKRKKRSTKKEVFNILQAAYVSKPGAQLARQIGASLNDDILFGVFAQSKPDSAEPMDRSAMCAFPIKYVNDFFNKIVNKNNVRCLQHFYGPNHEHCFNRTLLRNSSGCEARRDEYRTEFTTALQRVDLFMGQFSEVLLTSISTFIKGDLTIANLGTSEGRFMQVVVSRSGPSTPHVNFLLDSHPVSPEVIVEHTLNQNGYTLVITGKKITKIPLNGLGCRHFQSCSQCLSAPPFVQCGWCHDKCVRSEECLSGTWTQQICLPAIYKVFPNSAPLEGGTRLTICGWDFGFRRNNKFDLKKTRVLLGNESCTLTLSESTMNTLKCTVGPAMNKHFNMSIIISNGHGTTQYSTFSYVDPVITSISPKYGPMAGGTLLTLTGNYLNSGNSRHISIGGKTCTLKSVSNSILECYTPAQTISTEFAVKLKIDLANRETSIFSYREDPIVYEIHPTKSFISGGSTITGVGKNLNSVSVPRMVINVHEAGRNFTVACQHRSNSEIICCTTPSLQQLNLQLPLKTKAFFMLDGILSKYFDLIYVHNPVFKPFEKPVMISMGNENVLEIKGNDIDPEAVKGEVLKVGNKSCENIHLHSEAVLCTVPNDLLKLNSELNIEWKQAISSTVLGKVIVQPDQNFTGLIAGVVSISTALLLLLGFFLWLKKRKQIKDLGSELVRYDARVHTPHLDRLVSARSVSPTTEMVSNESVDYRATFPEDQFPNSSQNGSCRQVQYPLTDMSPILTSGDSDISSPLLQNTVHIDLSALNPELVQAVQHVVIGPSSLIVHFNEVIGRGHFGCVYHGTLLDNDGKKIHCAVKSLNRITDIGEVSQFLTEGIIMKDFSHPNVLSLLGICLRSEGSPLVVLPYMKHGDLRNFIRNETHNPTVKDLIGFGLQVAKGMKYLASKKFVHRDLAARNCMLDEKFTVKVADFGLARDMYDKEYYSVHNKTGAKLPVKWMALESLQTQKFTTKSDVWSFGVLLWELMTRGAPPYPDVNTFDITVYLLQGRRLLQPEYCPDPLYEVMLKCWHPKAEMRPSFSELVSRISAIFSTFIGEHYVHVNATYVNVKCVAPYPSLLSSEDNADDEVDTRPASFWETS

| Ki [1] | Ki [2] | Ki [4] | Structure (SMILES) | IC50 (Exodeoxyribonuclease V) | Ki [3] |
| --- | --- | --- | --- | --- | --- |
| – | – | – | COc1ccc(-c2nnc(NC(=O)c3ccc(F)cc3)o2)cc1 | > 118 µM (inactive) | – |
| > 3.16 µM (inactive) | > 5.01 µM (inactive) | > 1.26 µM (inactive) | CCn1c(-c2nonc2N)nc2cnc(Oc3cccc(NC(=O)c4ccc(OCCN5CCOCC5)cc4)c3)cc21 [GSK-269962A] | – | > 10 µM (inactive) |
